{"source": "patent US20230293535A1", "about": "“ERBB/BTK INHIBITORS” (Dizal (Jiangsu) Pharmaceutical Co., Ltd., priority 2018, published 2023)", "key": {"WT EGFR": {"biological_target": "T1, WT EGFR (Homo sapiens, UniProt P00533)", "T1 construct": "host or cells: A-431", "T1 sequence (P00533 25-1210)": "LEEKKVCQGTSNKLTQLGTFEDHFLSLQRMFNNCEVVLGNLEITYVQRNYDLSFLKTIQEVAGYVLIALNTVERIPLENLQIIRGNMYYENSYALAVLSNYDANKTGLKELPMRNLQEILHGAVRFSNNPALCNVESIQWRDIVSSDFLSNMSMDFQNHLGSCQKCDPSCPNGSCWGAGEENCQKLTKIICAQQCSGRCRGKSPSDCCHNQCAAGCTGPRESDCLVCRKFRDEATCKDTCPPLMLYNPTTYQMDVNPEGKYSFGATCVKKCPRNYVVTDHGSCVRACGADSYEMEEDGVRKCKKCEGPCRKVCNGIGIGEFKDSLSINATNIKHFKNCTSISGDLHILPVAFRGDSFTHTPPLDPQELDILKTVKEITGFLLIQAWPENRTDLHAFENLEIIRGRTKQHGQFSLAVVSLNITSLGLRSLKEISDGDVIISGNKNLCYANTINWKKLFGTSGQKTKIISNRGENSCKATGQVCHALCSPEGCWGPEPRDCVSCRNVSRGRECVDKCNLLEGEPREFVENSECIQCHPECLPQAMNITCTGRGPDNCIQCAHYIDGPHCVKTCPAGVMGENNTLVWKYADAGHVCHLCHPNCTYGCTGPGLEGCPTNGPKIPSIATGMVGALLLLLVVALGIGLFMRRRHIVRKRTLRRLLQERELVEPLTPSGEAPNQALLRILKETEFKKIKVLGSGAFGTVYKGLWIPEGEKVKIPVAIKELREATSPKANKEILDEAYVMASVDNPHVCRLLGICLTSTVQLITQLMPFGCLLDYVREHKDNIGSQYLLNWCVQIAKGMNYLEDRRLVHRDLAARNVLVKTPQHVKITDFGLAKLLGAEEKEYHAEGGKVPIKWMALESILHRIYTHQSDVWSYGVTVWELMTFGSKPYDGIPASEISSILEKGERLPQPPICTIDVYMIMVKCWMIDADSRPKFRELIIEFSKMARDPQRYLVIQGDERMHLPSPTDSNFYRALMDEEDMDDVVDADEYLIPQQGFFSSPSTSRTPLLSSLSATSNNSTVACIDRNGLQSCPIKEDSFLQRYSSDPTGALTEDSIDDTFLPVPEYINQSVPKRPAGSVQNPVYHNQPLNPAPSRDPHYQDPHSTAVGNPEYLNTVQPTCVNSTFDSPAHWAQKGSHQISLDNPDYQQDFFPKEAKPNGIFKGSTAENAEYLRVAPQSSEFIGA", "assay": "WT EGFR cellular phosphorylation inhibition in A-431 (hEGF stimulated, MSD);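 further: electrochemiluminescence read-out of EGFR Tyr1068 phosphorylation expressed as ratio to total EGFR, cells kept in medium with 1% FBS, compounds tested as a concentration series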", "type": "cell-based", "settings": "A431 cells, 4 h compound, then 100 ng/ml hEGF 10 min", "description": "(§1) One day before the test, WT or mutant cells were seeded in 96 well plates at appropriate concentrations with corresponding growth media supplemented with 1% FBS, and incubated overnight. The next day, tested compounds at a series of concentrations were added into each individual well of the plates, and the plates were incubated for 4 h at 37° C. with 5% CO2.\nThe EGFR (Y1068) phosphorylation level (activity) of cells in each well were then measured with MSD kit named “MULTI-SPOT®96 4-Spot HB Prototype EGFR Triplex [sequence]: pEGFR(Tyr1068),pEGFR(Tyr1173), Total EGFR” according to the manufacturer’s instruction (MESO SCALE DISCOVERY, Cat# N45ZB-1). The assay is an electrochemiluminescent method for determining both phosphorylated and total EGFR of cells with an MSD SECTOR® Imager and the ratio of p-EGFR/total EGFR can be generated by the machine. The Her2 (Y1248) phosphorylation level (activity) of cells in each well were measured with MSD Kit named “Phospho-ErbB2 (Tyr1248) Assay Whole Cell Lysate Kit” according to the manufacturer’s instruction (MESO SCALE DISCOVERY, Cat# K151CLD-3). The assay is an electrochemiluminescent method (MESO SCALE DISCOVERY) for determining both phosphorylated and total Her2 of cells with an MSD SECTOR® Imager and then the ratio of p-Her2/total Her2 can be generated by the machine."}, "[1]": {"biological_target": "T2, human Her2 exon 20 insertion mutation YVMA (Homo sapiens, UniProt P04626, INS775YVMA)", "T2 construct": "expressed in transfected cells; host or cells: NIH-3T3, lentiviral transduction, puromycin selection", "T2 sequence (P04626 with tags, fused parts or gaps INS775YVMA)": "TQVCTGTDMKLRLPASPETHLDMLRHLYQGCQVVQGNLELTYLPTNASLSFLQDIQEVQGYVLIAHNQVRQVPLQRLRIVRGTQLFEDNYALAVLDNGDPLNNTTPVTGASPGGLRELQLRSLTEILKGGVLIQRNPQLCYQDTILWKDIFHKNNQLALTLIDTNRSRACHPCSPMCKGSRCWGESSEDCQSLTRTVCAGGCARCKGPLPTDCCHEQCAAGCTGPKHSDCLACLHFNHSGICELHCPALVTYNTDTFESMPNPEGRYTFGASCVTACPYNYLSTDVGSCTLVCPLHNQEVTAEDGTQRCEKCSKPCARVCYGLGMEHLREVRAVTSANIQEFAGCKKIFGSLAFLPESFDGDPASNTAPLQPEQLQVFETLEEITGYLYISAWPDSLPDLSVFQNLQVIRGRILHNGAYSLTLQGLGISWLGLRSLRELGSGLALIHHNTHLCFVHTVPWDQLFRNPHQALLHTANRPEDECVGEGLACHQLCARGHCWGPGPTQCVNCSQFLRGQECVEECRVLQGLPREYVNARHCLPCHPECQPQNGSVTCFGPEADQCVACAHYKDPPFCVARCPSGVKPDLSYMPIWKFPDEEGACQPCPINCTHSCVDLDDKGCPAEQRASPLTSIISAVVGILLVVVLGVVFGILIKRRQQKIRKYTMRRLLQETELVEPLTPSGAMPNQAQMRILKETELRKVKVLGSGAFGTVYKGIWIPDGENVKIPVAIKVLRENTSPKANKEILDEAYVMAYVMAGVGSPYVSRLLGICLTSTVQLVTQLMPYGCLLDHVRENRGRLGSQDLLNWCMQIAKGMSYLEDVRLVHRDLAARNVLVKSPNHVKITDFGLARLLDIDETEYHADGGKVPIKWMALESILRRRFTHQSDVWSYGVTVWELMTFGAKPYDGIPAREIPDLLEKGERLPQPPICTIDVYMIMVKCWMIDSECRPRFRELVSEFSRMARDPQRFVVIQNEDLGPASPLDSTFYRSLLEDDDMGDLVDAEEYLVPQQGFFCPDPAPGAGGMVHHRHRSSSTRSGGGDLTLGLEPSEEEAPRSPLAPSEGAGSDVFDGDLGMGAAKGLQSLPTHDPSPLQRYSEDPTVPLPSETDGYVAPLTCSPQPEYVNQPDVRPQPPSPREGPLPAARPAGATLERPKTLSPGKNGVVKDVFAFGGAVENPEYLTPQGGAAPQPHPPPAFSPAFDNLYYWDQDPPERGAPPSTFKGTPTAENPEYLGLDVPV", "assay": "Her2 Exon 20 YVMA insertion cellular phosphorylation inhibition (MSD p-Her2 Y1248/total Her2);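 further: lentivirally transduced NIH-3T3 cells in 1% FBS medium, electrochemiluminescent MSD read-out, graded compound concentrations at 37 °C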", "type": "cell-based", "settings": "Her2 YVMAins cells, 4 h compound"}, "OCI-LY-10 cells": {"test_system": "OCI-LY-10 cells", "assay": "BTK (wt) cell proliferation, OCI-LY-10 (CellTiter-Glo, 72 h);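 further: viable cells quantified via cellular ATP luminescence, proliferation given as percent of DMSO control after subtracting a duplicate plate read at time of dosing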", "type": "cell-based", "settings": "Homo sapiens, OCI-Ly10, 72 h, read-out: BTK WT OCI-LY-10 GI50"}, "EGFR L858R&T790M": {"biological_target": "T3, EGFR L858R&T790M (Homo sapiens, UniProt P00533, L858R/T790M)", "T3 construct": "host or cells: NCI-H1975", "assay": "EGFR L858R and T790M cellular phosphorylation inhibition in NCI-H1975 (MSD);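 further: phosphorylated and total EGFR detected by electrochemiluminescence, cells exposed to compound in medium containing 1% FBS at 37 °C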", "type": "cell-based", "settings": "NCI-H1975 cells, 4 h compound, p-EGFR(Y1068)/total EGFR; read-out: EGFR L858R and T790M mutation IC50"}, "DB cells": {"test_system": "DB cells", "assay": "BTK (wt) cell proliferation, DB (CellTiter-Glo, 72 h);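 further: DB cells in 384-well plates given a dilution series of compound, viable cells read by ATP luminescence, growth expressed versus DMSO control after subtracting a time-zero plate reading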", "type": "cell-based", "settings": "Homo sapiens, DB, read-out: Non-BCR activated DB GI50"}, "Ba/F3 EGFR NPH ins cells": {"test_system": "Ba/F3 EGFR NPH ins cells", "assay": "Cell proliferation, Ba/F3 EGFR NPH ins (CellTiter-Glo, 72 h);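 further: IL3-independent cells carrying constitutively phosphorylated EGFR, compound dilution series, viable cells quantified by ATP luminescence, growth relative to DMSO wells after subtracting pre-dosing (day 0) baseline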", "type": "cell-based", "settings": "Ba/F3 EGFR, 72 h, read-out: EGFR Exon20 NPH insertion GI50 (nM)"}, "[2]": {"test_system": "NCI-H1975 EGFR L858R/T790M cells", "assay": "Cell proliferation, NCI-H1975 EGFR L858R/T790M (CellTiter-Glo, 72 h);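 further: viable cells quantified by luciferase-based ATP luminescence, proliferation expressed relative to DMSO-treated wells (100%) after subtracting a parallel plate read at the time of dosing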", "type": "cell-based", "settings": "Homo sapiens, NCI-H1975, 72 h, read-out: EGFR L858R and T790M mutation GI50 (nM)", "description": "(§2) WT or mutant cells were seeded in 384 well plates at appropriate concentrations with corresponding growth media supplemented with 10% FBS, for each experiment, identical plates were prepared in duplicates, and the plates were incubated overnight. On the next day, one of each duplicated plates was dosed with tested compounds at a series of concentrations, and another one of the duplicated plate was analysied for G0 value. The dosed plates were incubate for another 72 h at 37° C. with 5% CO2 and the number of viable cells in each well of the G0 plates or the dosed plates were measured by CellTiter-Glo® Luminescent Cell Viability Assay (Promega). This assay is a luminescent method for determining the number viable cells through measurement of cellular ATP concentration by detection of luciferase activity. Detection reagents (15 µl) was dispensed into per well, and the plates were incubate for 30 min at room temperature. Then, the luminescence in each well was measured using the Envision plate reader (PerkinElmer). The percentage of proliferation was calculated based on the formula: %Proliferation= 100 × (G3 value of sample well-Go value)/(G3 value of DMSO control-Go value)."}, "in vitro [3]": {"assay": "in vitro", "settings": "both, human, hepatocytes, human hepatocytes Clint (µL/min/10^6cells)"}, "[4]": {"biological_target": "T4, human EGFR exon 20 H773_V774insNPH (Homo sapiens, UniProt P00533, INS773NPH)", "T4 construct": "host or cells: Ba/F3", "T4 sequence (P00533 with tags, fused parts or gaps INS773NPH)": "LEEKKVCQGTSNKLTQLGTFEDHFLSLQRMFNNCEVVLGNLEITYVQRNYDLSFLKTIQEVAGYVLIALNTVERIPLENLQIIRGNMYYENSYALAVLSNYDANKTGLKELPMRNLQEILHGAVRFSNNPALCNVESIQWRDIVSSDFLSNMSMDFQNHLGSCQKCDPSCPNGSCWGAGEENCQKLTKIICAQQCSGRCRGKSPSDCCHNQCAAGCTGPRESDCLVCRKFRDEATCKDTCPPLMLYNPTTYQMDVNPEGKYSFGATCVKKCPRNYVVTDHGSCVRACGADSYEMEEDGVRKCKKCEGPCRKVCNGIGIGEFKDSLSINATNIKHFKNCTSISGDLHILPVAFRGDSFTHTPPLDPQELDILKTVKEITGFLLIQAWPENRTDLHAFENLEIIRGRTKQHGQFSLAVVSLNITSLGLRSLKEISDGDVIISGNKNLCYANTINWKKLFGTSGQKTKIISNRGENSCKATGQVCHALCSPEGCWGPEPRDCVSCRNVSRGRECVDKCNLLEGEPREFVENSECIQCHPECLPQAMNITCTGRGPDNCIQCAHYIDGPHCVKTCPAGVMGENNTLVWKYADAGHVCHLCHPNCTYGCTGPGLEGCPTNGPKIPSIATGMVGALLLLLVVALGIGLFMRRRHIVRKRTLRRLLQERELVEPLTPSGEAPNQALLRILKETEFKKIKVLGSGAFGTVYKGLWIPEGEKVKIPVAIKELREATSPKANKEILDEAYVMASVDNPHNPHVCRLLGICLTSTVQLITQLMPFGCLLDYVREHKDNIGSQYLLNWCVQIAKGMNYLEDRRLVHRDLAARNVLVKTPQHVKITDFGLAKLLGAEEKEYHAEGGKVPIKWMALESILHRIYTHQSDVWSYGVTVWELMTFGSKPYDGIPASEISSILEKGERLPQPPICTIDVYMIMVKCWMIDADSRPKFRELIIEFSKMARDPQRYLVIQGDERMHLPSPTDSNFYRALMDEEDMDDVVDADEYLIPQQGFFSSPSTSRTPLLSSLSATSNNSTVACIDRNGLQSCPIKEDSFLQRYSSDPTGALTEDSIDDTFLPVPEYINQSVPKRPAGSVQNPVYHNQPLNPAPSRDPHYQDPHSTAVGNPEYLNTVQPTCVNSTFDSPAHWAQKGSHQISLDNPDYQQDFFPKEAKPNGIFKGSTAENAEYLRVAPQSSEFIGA", "assay": "EGFR Exon20 NPH insertion cellular phosphorylation inhibition (MSD pEGFR Y1068/total EGFR);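 further: IL3-independent Ba/F3 cells with constitutively phosphorylated EGFR, compound exposure at 37 °C under 5% CO2, electrochemiluminescent MSD measurement of the p-EGFR to total EGFR ratio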", "type": "cell-based", "settings": "Ba/F3 EGFR NPH ins cells, 4 h compound, p-EGFR(Y1068)/total EGFR", "description": "as §1\nThe EGFR (Y1068) phosphorylation level (activity) of cells in each well were then measured with MSD kit named “MULTI-SPOT®96 4-Spot HB Prototype EGFR Triplex [sequence]: pEGFR(Tyr1068),pEGFR(Tyr1173), Total EGFR” according to the manufacturer’s instruction (MESO SCALE DISCOVERY, Cat# N45ZB-1). The assay is an electrochemiluminescent method for determining both phosphorylated and total EGFR of cells with an MSD SECTOR® Imager and the ratio of p-EGFR/total EGFR can be generated by the machine."}, "WT EGFR cell line A-431": {"test_system": "WT EGFR cell line A-431", "assay": "Cell proliferation, WT EGFR A431 (CellTiter-Glo, 72 h);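 further: proliferation from a luminescent ATP viability signal, expressed as 100 × (treated minus time-zero plate) over (DMSO control minus time-zero plate), cells grown with 10% FBS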", "type": "cell-based", "settings": "Homo sapiens, A-431, 72 h, read-out: EGFR WT A431 GI50 (nM)"}, "Ba/F3 EGFR ASV ins cells": {"test_system": "Ba/F3 EGFR ASV ins cells", "assay": "Cell proliferation, Ba/F3 EGFR ASV ins (CellTiter-Glo, 72 h);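 further: IL3-independent Ba/F3 cells transduced with EGFR V769_D770insASV, cellular ATP luminescence after compound exposure, growth relative to DMSO control with the day-0 baseline reading subtracted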", "type": "cell-based", "settings": "Ba/F3 EGFR, 72 h, read-out: EGFR Exon20 ASV insertion GI50 (nM)"}, "in vitro [5]": {"assay": "in vitro", "settings": "male, rat, hepatocytes, rat hepatocytes Clint (µL/min/10^6cells)"}, "[6]": {"test_system": "Her2 exon 20 insertion YVMA transduced NIH-3T3 cell line", "assay": "Cell proliferation, Her2 YVMAins NIH-3T3 (CellTiter-Glo, 72 h);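 further: viable cells quantified by ATP luminescence, growth over a day-zero baseline plate expressed as percent of DMSO control growth, compound dilution series in 10% FBS medium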", "type": "cell-based", "settings": "Mus musculus, NIH3T3, 72 h, read-out: Her2 Exon 20 YVMA insertion GI50 (nM)", "description": "as §2"}, "TMD-8 cells": {"test_system": "TMD-8 cells", "assay": "BTK (wt) cell proliferation, TMD-8 (CellTiter-Glo, 72 h);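 further: viable cells quantified by ATP-based luminescence, proliferation expressed as percent of DMSO control after subtracting a time-zero baseline plate read at dosing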", "type": "cell-based", "settings": "Homo sapiens, TMD8, 72 h, read-out: BTK WT TMD-8 GI50"}, "Ri-1 cells": {"test_system": "Ri-1 cells", "assay": "BTK (wt) cell proliferation, Ri-1 (CellTiter-Glo, 72 h);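 further: viable cells quantified as cellular ATP luminescence, proliferation normalized to a time-zero plate and the DMSO control, compounds tested across a dilution series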", "type": "cell-based", "settings": "Ri-1, 72 h, read-out: BTK WT Ri-1 GI50", "description": "OCI-LY-10 at 3,750 cells/well, TMD-8 and Ri-1 at 2,000 cells/well, and DB at 1,250 cells/well, respectively, were sorted into 384-well plates in RPMI1640 medium with 10% FBS. After overnight incubation, all cells were incubated with compound at a series of concentrations. Meanwhile, a duplicated plate of each cell line was prepared for measuring G0 value. The dosed plates were further incubated for 72 hours and the number of viable cells was measured by CellTiter-Glo® Luminescent Cell Viability Assay (Promega), a luminescent method for determining the number of viable cells through measurement of cellular ATP concentration using Envision plate reader (PerkinElmer). The percentage of proliferation was calculated as: % Proliferation = 100 × (G3 value of sample well - G0 value)/(G3 value of DMSO control - G0 value)."}, "[7]": {"biological_target": "T5, human EGFR exon 20 V769_D770insASV (Homo sapiens, UniProt P00533, INS769ASV)", "T5 construct": "expressed in transfected cells; host or cells: Ba/F3 (DSMZ ACC-300), lentiviral transduction, puromycin selection, IL3 depletion", "T5 sequence (P00533 with tags, fused parts or gaps INS769ASV)": "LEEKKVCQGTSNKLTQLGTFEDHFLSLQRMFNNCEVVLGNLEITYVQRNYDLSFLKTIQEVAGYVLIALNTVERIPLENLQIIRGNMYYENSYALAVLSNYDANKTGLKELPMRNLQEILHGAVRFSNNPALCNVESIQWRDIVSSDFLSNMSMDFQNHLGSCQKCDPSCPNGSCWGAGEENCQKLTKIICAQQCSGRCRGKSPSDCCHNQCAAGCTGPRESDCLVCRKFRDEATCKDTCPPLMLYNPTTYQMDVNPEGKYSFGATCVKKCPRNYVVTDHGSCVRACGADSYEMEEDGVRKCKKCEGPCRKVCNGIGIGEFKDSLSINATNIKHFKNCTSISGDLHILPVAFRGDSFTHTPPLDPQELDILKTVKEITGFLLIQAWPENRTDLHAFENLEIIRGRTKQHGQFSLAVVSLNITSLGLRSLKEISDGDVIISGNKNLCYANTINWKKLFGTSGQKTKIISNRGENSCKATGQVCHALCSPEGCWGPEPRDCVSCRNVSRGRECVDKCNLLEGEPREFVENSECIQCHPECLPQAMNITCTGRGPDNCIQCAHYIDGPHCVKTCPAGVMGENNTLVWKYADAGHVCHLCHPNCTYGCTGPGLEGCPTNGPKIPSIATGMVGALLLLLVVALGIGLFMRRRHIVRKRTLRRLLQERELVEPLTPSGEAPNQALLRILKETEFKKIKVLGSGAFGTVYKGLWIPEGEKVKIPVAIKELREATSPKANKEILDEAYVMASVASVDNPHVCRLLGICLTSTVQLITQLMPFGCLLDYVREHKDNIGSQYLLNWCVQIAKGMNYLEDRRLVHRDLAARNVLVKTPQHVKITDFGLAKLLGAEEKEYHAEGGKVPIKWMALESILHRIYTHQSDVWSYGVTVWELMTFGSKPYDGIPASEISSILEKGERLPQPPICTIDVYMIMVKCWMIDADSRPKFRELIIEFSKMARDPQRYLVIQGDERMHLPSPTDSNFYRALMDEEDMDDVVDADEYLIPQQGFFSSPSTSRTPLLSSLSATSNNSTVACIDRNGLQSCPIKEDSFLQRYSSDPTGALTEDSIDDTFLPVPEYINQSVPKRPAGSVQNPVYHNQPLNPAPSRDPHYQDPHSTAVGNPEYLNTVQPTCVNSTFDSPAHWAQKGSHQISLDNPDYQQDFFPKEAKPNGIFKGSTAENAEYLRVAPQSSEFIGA", "assay": "EGFR Exon20 ASV insertion cellular phosphorylation inhibition (MSD pEGFR Y1068/total EGFR);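 further: electrochemiluminescent readout on an MSD SECTOR Imager, IL3-independent transduced cells in medium with 1% FBS, compound concentration series at 37 °C and 5% CO2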", "type": "cell-based", "settings": "Ba/F3 EGFR ASV ins cells, 4 h compound, p-EGFR(Y1068)/total EGFR"}}, "data": [{"molecule": "C=CC(=O)Nc1cc(Nc2ncnc(Nc3cc(Cl)c(F)cc3C(C)(O)CC)n2)c(OC)cc1N1CC[C@@H](N(C)C)C1", "note": "(stereo partly drawn) [Compound 59, N-(5-(4-(5-chloro-4-fluoro-2-(2-hydroxybutan-2-yl)phenylamino)-1,3,5-triazin-2-ylamino)-2-((R)-3-(dimethylamino)pyrrolidin-1-yl)-4-methoxyphenyl) acrylamide]", "values": [{"measurement": "IC50", "setting": "WT EGFR", "result": 25.7, "unit": "nM"}, {"measurement": "IC50", "setting": "[1]", "result": 3.5, "unit": "nM"}, {"measurement": "GI50", "setting": "OCI-LY-10 cells", "result": 17.1, "unit": "nM"}, {"measurement": "IC50", "setting": "EGFR L858R&T790M", "result": 0.5, "unit": "nM"}, {"measurement": "GI50", "setting": "DB cells", "result": "> 3000", "unit": "nM"}, {"measurement": "GI50", "setting": "Ba/F3 EGFR NPH ins cells", "result": 29.1, "unit": "nM"}, {"measurement": "GI50", "setting": "[2]", "result": 2, "unit": "nM"}, {"measurement": "hepatocyte CLint at 1 µM", "setting": "in vitro [3]", "result": 3.75, "unit": "µL/min/1e6 cells"}, {"measurement": "IC50", "setting": "[4]", "result": 16.4, "unit": "nM"}, {"measurement": "GI50", "setting": "WT EGFR cell line A-431", "result": 10.7, "unit": "nM"}, {"measurement": "GI50", "setting": "Ba/F3 EGFR ASV ins cells", "result": 29.8, "unit": "nM"}, {"measurement": "hepatocyte CLint at 1 µM", "setting": "in vitro [5]", "result": 14.1, "unit": "µL/min/1e6 cells"}, {"measurement": "GI50", "setting": "[6]", "result": 62.2, "unit": "nM"}, {"measurement": "GI50", "setting": "TMD-8 cells", "result": 4.78, "unit": "nM"}, {"measurement": "GI50", "setting": "Ri-1 cells", "result": 26.9, "unit": "nM"}, {"measurement": "IC50", "setting": "[7]", "result": 13.3, "unit": "nM"}]}]}
